One assay has as its target T1, Or69aB (Drosophila melanogaster, UniProt P82985).
T1 construct: gene Or69a; full ORF cloned from antennal cDNA into pUAS.g-HA.attB; expressed in Dhalo ab3A empty neurons (Or22a-Gal4), endogenous Orco; with Odorant receptor coreceptor
T1 sequence (P82985 1-393): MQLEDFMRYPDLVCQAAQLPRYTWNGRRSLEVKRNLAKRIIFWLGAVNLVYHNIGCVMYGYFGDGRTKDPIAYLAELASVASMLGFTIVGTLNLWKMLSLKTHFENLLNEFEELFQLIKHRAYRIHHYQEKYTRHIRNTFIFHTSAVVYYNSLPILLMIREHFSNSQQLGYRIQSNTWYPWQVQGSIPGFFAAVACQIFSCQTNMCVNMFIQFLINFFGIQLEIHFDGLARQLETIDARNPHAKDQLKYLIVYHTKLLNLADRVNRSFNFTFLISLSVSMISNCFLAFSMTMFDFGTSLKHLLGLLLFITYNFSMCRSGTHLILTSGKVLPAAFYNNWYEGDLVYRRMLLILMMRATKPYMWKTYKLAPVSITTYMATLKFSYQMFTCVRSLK
T1 sequence (Q9VNB5 1-486 partner): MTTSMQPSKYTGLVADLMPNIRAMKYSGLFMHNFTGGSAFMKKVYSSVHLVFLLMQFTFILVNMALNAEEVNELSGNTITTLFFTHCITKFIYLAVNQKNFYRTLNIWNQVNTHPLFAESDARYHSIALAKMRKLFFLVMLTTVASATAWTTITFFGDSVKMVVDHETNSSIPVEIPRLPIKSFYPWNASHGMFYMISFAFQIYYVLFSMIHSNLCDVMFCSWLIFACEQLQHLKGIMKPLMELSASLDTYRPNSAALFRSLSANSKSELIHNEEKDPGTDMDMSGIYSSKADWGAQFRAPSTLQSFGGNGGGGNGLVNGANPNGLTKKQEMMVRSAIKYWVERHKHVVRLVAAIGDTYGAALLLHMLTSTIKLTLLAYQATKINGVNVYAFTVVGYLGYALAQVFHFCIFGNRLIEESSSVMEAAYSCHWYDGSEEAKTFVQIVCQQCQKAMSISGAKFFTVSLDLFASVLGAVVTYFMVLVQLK
The assay is described as follows: single sensillum recording, empty ab3A neuron. The settings on record: 10 ug on filter paper, 0.5 s puff; activation (agonist). The class given is cell-based.

The target in another assay is T2, Or69aA (Drosophila melanogaster, UniProt Q9VU27).
T2 construct: gene Or69a; full ORF cloned from antennal cDNA into pUAS.g-HA.attB; expressed in Dhalo ab3A empty neurons (Or22a-Gal4), endogenous Orco; with Odorant receptor coreceptor
T2 sequence (Q9VU27 1-393): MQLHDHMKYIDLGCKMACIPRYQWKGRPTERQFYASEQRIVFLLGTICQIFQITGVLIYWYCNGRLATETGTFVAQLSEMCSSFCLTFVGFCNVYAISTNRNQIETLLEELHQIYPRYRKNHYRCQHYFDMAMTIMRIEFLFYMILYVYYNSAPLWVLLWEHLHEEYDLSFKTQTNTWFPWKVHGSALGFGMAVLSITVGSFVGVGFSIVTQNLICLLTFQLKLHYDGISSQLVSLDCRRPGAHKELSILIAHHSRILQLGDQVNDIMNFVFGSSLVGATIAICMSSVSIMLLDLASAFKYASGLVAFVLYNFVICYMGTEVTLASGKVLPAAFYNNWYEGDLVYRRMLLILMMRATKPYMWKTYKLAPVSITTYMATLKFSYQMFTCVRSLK
T2 sequence (Q9VNB5 1-486 partner): T1 sequence (Q9VNB5 1-486 partner)
Briefly: single sensillum recording, empty ab3A neuron. The settings on record: 10 ug on filter paper, 0.5 s puff; activation (agonist). The class given is cell-based.

Here are results for 6 compounds from article PMC5622430, “A Drosophila female pheromone elicits species-specific long-range attraction via an olfactory channel with dual specificity for sex and food” (BMC Biology, 2017).

The structures appear in SMILES notation.

For `C=C(C)[C@@H]1CC=C(C)C(=O)C1` [compound 8, (R)-carvone], the “SSR response (spikes/s)” value at Or69aB is recorded as “(R)-carvone, which elicited the strongest Or69aB response”. In the case of `C=C(C)[C@H]1CC=C(C)C(=O)C1` [(S)-carvone], on Or69aB, the “SSR response (spikes/s)” value is “Or69aB responds best to both isomers of carvone”.

`C=C[C@@](C)(O)CCC=C(C)C` [(S)-linalool]: the “SSR response (spikes/s)” value on Or69aA was “The most active ligands (S)-α-terpineol and (S)- and (R)-linalool”. Take `C=C[C@](C)(O)CCC=C(C)C` [compound 4, (R)-linalool]: the “SSR response (spikes/s)” value at Or69aA was “The most active ligands (S)-α-terpineol and (S)- and (R)-linalool”. On to `CCCCCC/C=C\CCC=O` [compound 10, (Z)-4-undecenal], for which the “SSR response (spikes/s)” value on Or69aB is given as “Or69aB responds best to both isomers of carvone, followed by Z4-11Al”. As to `CC1=CC[C@@H](C(C)(C)O)CC1` [compound 1, (S)-α-terpineol], the “SSR response (spikes/s)” value on Or69aA was “The most active ligands (S)-α-terpineol and (S)- and (R)-linalool”.
